What all share (experiment): EGFR kinase activity (AQT0794 peptide, Sox fluorescence)
What all share (format): biochemical

In test [1] the target is T1, EGFR WT (Homo sapiens, UniProt P00533).
T1 construct: purchased ThermoFisher PV3872
Particulars: 1 mM ATP, 2.0 nM enzyme, room temperature. The protocol: (§1) Compound I was dissolved in DMSO to generate a 10 mM stock solution. Dosing solutions for biochemical assays were prepared by serial dilution in DMSO followed by dilution in assay buffers as described in the experimental procedures. Stock formulations were stored at −80° C. and dosing solutions were prepared for each experiment immediately prior to use.
(§2) Activity of human recombinant EGFR wildtype and mutant proteins was measured by the phosphorylation of a peptide substate via chelation-enhanced fluorescence using the sulfonamido-oxine (Sox) chromophore detection format. Compound I was solubilized in DMSO. 16-point half log titrations in 100% DMSO were carried out by a Bravo liquid handler (Agilent) in a 384-well polypropylene plate (Greiner Cat. #781201). Using the Bravo liquid handler, intermediate 1:10 dilutions in a 384-well polypropylene plate were created in assay buffer. For the enzymatic reactions, 5 μL from the intermediate compound dilution plate was transferred to a low volume 384 well, black flat-bottom polystyrene microplate (Greiner Cat. #784076). A separate plate was generated for each enzyme. Next, 5 μL of a 4× ATP/AQT0794 working solution was added to the assay plate. Finally, 10 μL of 2× enzyme was added to start the reactions. The plate was sealed with a PerkinElmer TopSeal-A Plus plate seal (Cat. #6050185) and read at excitation (360 nm) and emission (492 nm) in continuous kinetic mode every 2 minutes for 3 hours at room temperature. Reactions were performed in 50 mM HEPES, pH 7.5, 1 mM ATP, 1.0 mM DTT, 0.015% Brij-35, 0.01% BSA, 1.0 mM EGTA, 10 mM MgCl2, 10 μM EGFR peptide substrate probe from AssayQuant (Cat. #AQT0794) plus recombinant EGFR protein (Table 1). The final DMSO concentration was 2.5%.
(§3) Real-time continuous kinetic data were loaded into Dotmatics software where slopes were calculated, converted to % inhibitions and IC50s were generated using the four-parameter non-linear regression curve fit. Reactions lacking enzymes were used as 100% inhibition controls. After addition of recombinant EGFR and its substrates ATP and AQT0794, the activity of EGFR was measured by quantification of the phosphorylation of the AQT0794 peptide substate via chelation-enhanced fluorescence using the sulfonamido-oxine (Sox) chromophore detection format with diminishing signal indicative of inhibition of EGFR activity.

For test [2], the target named is T2, EGFR_d746-750 S768I (Homo sapiens, UniProt P00533, DEL746-750/S768I).
T2 construct: purchased SignalChem E10-122B3G
As to conditions: 1 mM ATP, 2.0 nM enzyme, room temperature. The protocol:
as §1, §2, §3

The target of test [3] is T3, EGFR_L718Q (Homo sapiens, UniProt P00533, L718Q).
T3 construct: purchased SignalChem E10-122G2G
T3 sequence (P00533 25-1210 L718Q): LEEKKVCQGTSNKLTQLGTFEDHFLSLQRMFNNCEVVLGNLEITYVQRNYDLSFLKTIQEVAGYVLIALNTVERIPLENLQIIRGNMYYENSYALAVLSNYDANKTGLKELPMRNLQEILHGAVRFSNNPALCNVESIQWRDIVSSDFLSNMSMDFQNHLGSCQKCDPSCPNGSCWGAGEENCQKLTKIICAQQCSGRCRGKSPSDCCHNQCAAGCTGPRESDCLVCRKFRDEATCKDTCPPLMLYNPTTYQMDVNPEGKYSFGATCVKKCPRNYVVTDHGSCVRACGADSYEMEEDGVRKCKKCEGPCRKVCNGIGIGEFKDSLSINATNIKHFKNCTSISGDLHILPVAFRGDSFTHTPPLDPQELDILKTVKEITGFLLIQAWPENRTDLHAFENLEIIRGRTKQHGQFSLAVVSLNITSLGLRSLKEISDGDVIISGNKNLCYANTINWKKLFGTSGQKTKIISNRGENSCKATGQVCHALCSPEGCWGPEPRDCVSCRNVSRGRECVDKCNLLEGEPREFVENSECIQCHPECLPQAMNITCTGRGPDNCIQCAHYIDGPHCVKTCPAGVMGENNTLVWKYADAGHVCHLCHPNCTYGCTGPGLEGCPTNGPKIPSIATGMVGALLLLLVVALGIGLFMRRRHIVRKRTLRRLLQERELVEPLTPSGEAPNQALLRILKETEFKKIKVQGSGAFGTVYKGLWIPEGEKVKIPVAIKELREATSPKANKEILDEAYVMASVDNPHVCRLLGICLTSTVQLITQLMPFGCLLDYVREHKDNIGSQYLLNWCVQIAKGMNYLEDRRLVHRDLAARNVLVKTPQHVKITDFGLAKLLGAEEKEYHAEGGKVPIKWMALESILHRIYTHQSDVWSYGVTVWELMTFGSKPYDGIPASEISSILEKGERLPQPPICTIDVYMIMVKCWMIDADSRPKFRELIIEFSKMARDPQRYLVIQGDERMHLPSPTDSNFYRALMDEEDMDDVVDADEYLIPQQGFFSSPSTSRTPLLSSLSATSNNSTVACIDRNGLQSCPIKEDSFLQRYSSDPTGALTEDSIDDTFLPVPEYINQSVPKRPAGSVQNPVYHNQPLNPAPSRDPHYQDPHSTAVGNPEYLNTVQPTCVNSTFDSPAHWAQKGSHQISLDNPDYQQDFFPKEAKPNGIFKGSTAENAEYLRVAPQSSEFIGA
Particulars: 1 mM ATP, 2.0 nM enzyme, room temperature. The protocol:
as §1, §2, §3

Test [4] addresses T4, EGFR_d746-750 G724S (Homo sapiens, UniProt P00533, DEL746-750/G724S).
T4 construct: purchased SignalChem E10-122D3G
Particulars: 1 mM ATP, 2.0 nM enzyme, room temperature. On the procedure:
as §1, §2, §3

The target in test [5] is T5, EGFR_G719S (Homo sapiens, UniProt P00533, G719S).
T5 construct: purchased SignalChem E10-12HG
T5 sequence (P00533 25-1210 G719S): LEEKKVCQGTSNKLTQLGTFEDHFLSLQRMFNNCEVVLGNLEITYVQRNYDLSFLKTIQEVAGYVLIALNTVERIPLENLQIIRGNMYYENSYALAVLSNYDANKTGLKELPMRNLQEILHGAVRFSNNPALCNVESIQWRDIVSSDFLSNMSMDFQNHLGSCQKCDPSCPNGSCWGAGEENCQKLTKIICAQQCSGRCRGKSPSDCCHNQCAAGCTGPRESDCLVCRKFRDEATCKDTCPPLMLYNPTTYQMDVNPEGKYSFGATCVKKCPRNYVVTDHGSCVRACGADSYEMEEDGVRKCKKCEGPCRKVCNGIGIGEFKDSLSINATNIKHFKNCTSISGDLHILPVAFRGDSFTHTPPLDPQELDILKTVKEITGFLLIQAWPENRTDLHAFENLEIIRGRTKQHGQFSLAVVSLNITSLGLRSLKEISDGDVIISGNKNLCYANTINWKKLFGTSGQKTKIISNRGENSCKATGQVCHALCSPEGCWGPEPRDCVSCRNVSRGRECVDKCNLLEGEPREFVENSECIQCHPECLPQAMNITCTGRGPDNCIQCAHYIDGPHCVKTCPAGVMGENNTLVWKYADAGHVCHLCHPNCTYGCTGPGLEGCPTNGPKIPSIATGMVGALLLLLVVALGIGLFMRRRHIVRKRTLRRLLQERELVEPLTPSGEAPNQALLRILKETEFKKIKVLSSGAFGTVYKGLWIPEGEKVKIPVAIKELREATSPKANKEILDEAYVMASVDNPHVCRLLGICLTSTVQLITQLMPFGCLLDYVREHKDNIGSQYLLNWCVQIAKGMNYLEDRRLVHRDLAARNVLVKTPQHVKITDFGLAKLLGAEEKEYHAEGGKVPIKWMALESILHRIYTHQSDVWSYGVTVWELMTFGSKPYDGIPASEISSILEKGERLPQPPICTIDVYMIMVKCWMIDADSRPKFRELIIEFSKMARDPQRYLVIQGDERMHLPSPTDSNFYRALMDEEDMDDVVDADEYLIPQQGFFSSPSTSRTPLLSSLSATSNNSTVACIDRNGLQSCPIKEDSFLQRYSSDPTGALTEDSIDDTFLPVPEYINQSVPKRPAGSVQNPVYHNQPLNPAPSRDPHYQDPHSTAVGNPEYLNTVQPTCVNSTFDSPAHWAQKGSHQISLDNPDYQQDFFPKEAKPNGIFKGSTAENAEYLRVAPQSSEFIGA
As to conditions: 1 mM ATP, 1.0 nM enzyme, room temperature. On the procedure:
as §1, §2, §3

The target in test [6] is T6, EGFR_L747S (Homo sapiens, UniProt P00533, L747S).
T6 construct: purchased SignalChem E10-122Y2G
T6 sequence (P00533 25-1210 L747S): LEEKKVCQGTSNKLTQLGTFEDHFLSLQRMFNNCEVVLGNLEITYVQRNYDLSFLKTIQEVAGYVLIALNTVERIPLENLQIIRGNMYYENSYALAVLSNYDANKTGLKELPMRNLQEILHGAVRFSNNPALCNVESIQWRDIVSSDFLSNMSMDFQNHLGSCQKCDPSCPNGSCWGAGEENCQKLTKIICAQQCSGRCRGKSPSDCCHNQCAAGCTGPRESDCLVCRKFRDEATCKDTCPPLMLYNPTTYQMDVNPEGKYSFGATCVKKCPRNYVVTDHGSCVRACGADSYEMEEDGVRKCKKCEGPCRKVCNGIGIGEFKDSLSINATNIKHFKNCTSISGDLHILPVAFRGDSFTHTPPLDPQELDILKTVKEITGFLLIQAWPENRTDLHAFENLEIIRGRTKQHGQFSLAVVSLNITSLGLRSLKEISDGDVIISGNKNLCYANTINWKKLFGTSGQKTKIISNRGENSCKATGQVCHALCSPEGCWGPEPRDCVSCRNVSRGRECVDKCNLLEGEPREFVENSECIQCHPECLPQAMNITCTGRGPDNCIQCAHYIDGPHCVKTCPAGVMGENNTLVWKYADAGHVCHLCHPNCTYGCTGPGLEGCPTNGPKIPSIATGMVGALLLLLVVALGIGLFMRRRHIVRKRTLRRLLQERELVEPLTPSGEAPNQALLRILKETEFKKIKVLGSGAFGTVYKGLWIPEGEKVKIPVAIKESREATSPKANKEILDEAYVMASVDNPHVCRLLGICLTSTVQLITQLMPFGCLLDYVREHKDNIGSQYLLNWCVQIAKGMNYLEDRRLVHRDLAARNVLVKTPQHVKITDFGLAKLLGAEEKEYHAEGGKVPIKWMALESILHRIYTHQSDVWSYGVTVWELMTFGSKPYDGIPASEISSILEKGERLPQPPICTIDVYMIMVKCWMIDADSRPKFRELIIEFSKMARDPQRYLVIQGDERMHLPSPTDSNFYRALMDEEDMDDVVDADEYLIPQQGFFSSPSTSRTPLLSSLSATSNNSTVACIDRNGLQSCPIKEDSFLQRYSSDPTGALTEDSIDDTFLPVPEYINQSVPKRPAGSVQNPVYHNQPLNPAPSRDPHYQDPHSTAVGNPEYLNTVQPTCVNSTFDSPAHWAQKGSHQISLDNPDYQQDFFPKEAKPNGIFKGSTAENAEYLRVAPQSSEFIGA
As to conditions: 1 mM ATP, 0.5 nM enzyme, room temperature. The protocol:
as §1, §2, §3

For test [7], the target named is T7, EGFR_L792H (Homo sapiens, UniProt P00533, L792H).
T7 construct: purchased SignalChem E10-122J2G
As to conditions: 1 mM ATP, 1.0 nM enzyme, room temperature. On the procedure:
as §1, §2, §3

Test [8] has as its target T8, EGFR_G719C (Homo sapiens, UniProt P00533, G719C).
T8 construct: purchased SignalChem E10-12FG
As to conditions: 1 mM ATP, 5.0 nM enzyme, room temperature. On the procedure: as §1, §2, §3

T4 sequence (P00533 with tags, fused parts or gaps G724S/DEL746-750): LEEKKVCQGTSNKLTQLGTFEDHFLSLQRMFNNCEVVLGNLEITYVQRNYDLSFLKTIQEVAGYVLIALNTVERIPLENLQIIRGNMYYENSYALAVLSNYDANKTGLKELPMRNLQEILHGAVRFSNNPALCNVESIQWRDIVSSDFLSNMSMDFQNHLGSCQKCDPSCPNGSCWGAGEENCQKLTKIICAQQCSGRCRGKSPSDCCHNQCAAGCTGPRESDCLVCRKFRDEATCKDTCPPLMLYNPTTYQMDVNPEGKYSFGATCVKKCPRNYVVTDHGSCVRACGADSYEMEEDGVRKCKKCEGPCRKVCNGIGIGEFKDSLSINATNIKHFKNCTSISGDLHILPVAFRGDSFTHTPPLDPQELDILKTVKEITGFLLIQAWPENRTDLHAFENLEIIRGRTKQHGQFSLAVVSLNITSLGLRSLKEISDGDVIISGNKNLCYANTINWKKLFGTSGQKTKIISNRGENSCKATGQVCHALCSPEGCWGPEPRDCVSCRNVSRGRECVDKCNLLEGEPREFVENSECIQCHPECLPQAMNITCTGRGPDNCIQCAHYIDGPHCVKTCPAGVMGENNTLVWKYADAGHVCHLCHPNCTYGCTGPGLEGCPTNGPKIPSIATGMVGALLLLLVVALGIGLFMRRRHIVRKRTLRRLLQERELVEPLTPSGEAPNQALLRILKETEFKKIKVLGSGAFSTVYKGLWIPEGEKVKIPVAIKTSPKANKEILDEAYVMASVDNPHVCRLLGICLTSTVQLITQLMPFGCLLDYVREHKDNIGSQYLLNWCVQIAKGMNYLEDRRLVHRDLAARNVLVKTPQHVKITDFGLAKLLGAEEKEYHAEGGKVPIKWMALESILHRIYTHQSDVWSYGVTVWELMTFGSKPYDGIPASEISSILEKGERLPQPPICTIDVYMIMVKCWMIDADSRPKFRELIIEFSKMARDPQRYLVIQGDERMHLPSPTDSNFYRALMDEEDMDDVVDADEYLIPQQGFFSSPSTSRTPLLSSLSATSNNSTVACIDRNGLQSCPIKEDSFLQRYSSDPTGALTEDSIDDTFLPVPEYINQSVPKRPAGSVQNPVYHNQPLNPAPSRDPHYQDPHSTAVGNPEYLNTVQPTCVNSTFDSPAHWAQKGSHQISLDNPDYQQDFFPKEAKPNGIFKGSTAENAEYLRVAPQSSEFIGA

As for `C=CC(=O)Nc1cc(Nc2cc(N3OCC[C@@H]3c3cc(F)cc(F)c3)ncn2)c(OC)cc1N1CCC(N2CCN(C3CC3)CC2)CC1` [Compound I, N-[2-[4-(4-cyclopropyl-1-piperazinyl)-1-piperidinyl]-5-[[6-[(3R)-3-(3,5-difluorophenyl)-2-isoxazolidinyl]-4-pyrimidinyl]amino]-4-methoxyphenyl]-2-propenamide], the IC50 – broadly, the concentration that gives 50% inhibition – was 2.3 ± 1.1 nM in test [1]; 1 nM in test [2]; 3.7 nM in test [3]; 3.5 nM in test [4]; 0.9 nM in test [5]; 1.5 nM in test [6]. Also, the results for the IC50 in test [7] and in test [8] were 16 nM and 0.6 nM, respectively.

The values above are taken from patent US20260306491A1, “EGFR INHIBITOR FOR TREATING CANCERS COMPRISING ATYPICAL EGFR MUTATIONS” (ORIC Pharmaceuticals, Inc., priority 2023, published 2026).
